According to US20250235543A1, “MODIFIED PROTEINS AND PROTEIN DEGRADERS” (Cullgen (Shanghai), Inc., priority 2021, published 2025):
Read-outs that look alike come from different tables or passages of the source.

Legend:
[1] = biological target: T1, CDK4 (Homo sapiens, UniProt P11802); assay: CDK4 percentage degradation in Calu-1 cells (immunoblotting); type: cell-based; conditions: for inhibition at 0.2 µM: read-out: CDK4 Degradation (200 nM); for inhibition at 10 µM: read-out: CDK4 Degradation (10 μM)
T1 construct: endogenous in cells; host or cells: Calu-1
T1 sequence (P11802 2-303 limits assumed): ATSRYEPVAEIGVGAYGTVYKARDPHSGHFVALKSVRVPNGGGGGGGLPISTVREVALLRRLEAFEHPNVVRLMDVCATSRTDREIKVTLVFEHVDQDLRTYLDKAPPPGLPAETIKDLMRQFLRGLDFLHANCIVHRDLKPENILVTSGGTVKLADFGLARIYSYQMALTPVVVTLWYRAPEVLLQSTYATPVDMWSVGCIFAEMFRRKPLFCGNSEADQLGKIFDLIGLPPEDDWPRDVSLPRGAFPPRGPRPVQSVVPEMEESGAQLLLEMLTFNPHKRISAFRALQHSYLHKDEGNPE
T1 sequence (P24385 whole entry partner): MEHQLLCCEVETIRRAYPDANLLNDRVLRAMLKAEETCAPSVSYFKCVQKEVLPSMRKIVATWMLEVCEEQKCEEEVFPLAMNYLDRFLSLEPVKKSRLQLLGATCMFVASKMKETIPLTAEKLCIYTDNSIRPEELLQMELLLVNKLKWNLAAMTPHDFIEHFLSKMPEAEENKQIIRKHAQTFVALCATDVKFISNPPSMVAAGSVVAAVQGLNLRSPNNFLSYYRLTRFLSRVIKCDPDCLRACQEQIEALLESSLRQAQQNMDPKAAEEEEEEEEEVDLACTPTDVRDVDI
T1 sequence (Q16531 2-1140 limits assumed, further chain): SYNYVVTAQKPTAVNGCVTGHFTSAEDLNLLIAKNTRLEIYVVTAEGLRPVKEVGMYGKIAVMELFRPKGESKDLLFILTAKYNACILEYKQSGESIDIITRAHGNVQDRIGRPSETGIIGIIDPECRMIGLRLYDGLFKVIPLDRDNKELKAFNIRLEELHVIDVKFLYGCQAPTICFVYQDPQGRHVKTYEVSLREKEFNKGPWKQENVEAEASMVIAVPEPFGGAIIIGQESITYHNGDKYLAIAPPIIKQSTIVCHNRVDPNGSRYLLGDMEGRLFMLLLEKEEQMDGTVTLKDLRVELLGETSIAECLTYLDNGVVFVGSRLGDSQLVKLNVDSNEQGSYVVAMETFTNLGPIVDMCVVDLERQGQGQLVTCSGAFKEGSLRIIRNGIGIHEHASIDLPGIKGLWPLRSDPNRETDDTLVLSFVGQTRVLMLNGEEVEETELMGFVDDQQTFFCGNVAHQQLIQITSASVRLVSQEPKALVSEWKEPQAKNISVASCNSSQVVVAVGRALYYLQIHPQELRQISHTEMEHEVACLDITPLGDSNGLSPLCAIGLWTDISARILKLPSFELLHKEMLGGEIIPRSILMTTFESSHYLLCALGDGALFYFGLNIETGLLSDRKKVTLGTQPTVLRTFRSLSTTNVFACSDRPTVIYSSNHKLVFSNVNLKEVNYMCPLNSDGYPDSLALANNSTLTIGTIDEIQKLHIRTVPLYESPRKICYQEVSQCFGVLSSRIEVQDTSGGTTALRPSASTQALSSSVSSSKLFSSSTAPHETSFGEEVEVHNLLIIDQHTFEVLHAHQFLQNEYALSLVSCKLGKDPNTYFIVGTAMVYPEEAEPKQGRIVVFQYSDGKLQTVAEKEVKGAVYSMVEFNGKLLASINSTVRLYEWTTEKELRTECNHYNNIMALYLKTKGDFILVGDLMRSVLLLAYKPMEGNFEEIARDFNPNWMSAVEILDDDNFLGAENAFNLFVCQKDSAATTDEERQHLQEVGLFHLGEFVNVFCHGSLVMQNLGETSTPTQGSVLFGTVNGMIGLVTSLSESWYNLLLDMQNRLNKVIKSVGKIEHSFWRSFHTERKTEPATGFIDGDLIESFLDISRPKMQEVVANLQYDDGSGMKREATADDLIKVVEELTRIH
Method: (§1) […] A: protein percentage degradation >=80%; B: protein percentage degradation <80%, and >=50%; C: protein percentage degradation <50%, and >=30%; D: protein percentage degradation <30%.
(§2) Cultured cells were washed with cold PBS once and lysed in cold RIPA buffer supplemented with protease inhibitors and phosphatase inhibitors (Beyotime Biotechnology). The solutions were then incubated at 4° C. for 30 min with gentle agitation to fully lysed cells. Cell lysates were centrifuged at 13,000 rpm for 10 min at 4° C. and pellets were discarded. Total protein concentrations in the lysates were determined following BCA assays (Beyotime Biotechnology). Cell lysates were mixed with Laemmli loading buffer and heated at 99° C. for 5 min. Proteins were resolved on SDS-PAGE and visualized using Western ECL Substrate kits on a ChemiDoc MP Imaging system (Bio-Rad). Protein bands were quantitated using the Image Lab software provided by Bio-Rad.

[2] = system: cyclin D1; assay: Cyclin D1 percentage degradation in Calu-1 cells (immunoblotting); type: cell-based; conditions: 16 hours
Method: as §1, §2

Structure (SMILES) | inhibition at 0.2 µM ([1]; Calu-1 cells, 200 nM, 16 hours) [%] | CyclinD1 Degradation (200 nM) [2] | inhibition at 0.2 µM ([1]; Calu-1, 16 h) [%] | inhibition at 10 µM ([1]; Calu-1 cells, 16 hours) [%] | CyclinD1 Degradation (10 μM) [2]
CC(=O)c1c(C)c2cnc(Nc3ccc(N4CCN(CC(=O)NCCOCCOCCNc5ccc(C)c(C(=O)Nc6nc(C)c(C)s6)c5)CC4)cn3)nc2n(C2CCCC2)c1=O [CPD-089, 5-((2-(2-(2-(2-(4-(6-((6-Acetyl-8-cyclopentyl-5-methyl-7-oxo-7,8-dihydropyrido[2,3-d]pyrimidin-2-yl)amino)pyridin-3-yl)piperazin-1-yl)acetamido)ethoxy)ethoxy)ethyl)amino)-N-(4,5-dimethylthiazol-2-yl)-2-methylbenzamide] | 50 to 80 | B (protein percentage degradation <80%, and >=50%) | – | – | –
CC(=O)c1c(C)c2cnc(Nc3ccc(N4CCN(CC(=O)NCCOCCOCCOCCOCCOCCNc5cccc(C(=O)Nc6nc(C)c(C)s6)c5C)CC4)cn3)nc2n(C2CCCC2)c1=O [CPD-107, 3-((1-(4-(6-((6-Acetyl-8-cyclopentyl-5-methyl-7-oxo-7,8-dihydropyrido[2,3-d]pyrimidin-2-yl)amino)pyridin-3-yl)piperazin-1-yl)-2-oxo-6,9,12,15,18-pentaoxa-3-azaicosan-20-yl)amino)-N-(4,5-dimethylthiazol-2-yl)-2-methylbenzamide] | > 80 | A (protein percentage degradation >=80%) | – | – | –
CC(=O)c1c(C)c2cnc(Nc3ccc(N4CCN(CC(=O)NCCOCCOCCC(=O)Nc5ccccc5CNc5nc(C)c(C)s5)CC4)cn3)nc2n(C2CCCC2)c1=O [CPD-154, 3-(2-(2-(2-(4-(6-((6-Acetyl-8-cyclopentyl-5-methyl-7-oxo-7,8-dihydropyrido[2,3-d]pyrimidin-2-yl)amino)pyridin-3-yl)piperazin-1-yl)acetamido)ethoxy)ethoxy)-N-(2-(((4,5-dimethylthiazol-2-yl)amino)methyl)phenyl)propanamide] | < 30 | D (protein percentage degradation <30%) | – | – | –
CC(=O)c1c(C)c2cnc(Nc3ccc(N4CCN(CC(=O)NCCOCCOCCC(=O)Nc5ccccc5C(=O)Nc5cc(C)[nH]n5)CC4)cn3)nc2n(C2CCCC2)c1=O [CPD-074, 2-(3-(2-(2-(2-(4-(6-((6-Acetyl-8-cyclopentyl-5-methyl-7-oxo-7,8-dihydropyrido[2,3-d]pyrimidin-2-yl)amino)pyridin-3-yl)piperazin-1-yl)acetamido)ethoxy)ethoxy)propanamido)-N-(5-methyl-1H-pyrazol-3-yl)benzamide] | 50 to 80 | B (protein percentage degradation <80%, and >=50%) | – | – | –
CC(=O)c1c(C)c2cnc(Nc3ccc(N4CCN(C(=O)CCOCCOCCOCCNc5cccc(C(=O)Nc6nc(C)c(C)s6)c5C)CC4)cn3)nc2n(C2CCCC2)c1=O [CPD-122, 3-((2-(2-(2-(3-(4-(6-((6-Acetyl-8-cyclopentyl-5-methyl-7-oxo-7,8-dihydropyrido[2,3-d]pyrimidin-2-yl)amino)pyridin-3-yl)piperazin-1-yl)-3-oxopropoxy)ethoxy)ethoxy)ethyl)amino)-N-(4,5-dimethylthiazol-2-yl)-2-methylbenzamide] | – | A (protein percentage degradation >=80%) | 50 to 80 | – | –
Cc1nc(NC(=O)c2ccccc2NC(=O)CNC(=O)CN2CCN(c3ccc(Nc4ncc5cc(C(=O)N(C)C)n(C6CCCC6)c5n4)nc3)CC2)sc1C [CPD-286, 7-Cyclopentyl-2-((5-(4-(2-((2-((2-((4,5-dimethylthiazol-2-yl)carbamoyl)phenyl)amino)-2-oxoethyl)amino)-2-oxoethyl)piperazin-1-yl)pyridin-2-yl)amino)-N,N-dimethyl-7H-pyrrolo[2,3-d]pyrimidine-6-carboxamide] | – | – | – | 50 to 80 | A (protein percentage degradation >= 80%)
CC(=O)c1c(C)c2cnc(Nc3ccc(N4CCN(CC(=O)NCCCCC(=O)Nc5ccccc5C(=O)Nc5nc(C)c(C)s5)CC4)cn3)nc2n(C2CCCC2)c1=O [CPD-174, 2-(5-(2-(4-(6-((6-Acetyl-8-cyclopentyl-5-methyl-7-oxo-7,8-dihydropyrido[2,3-d]pyrimidin-2-yl)amino)pyridin-3-yl)piperazin-1-yl)acetamido)pentanamido)-N-(4,5-dimethylthiazol-2-yl)benzamide] | > 80 | A (protein percentage degradation >=80%) | – | – | –
CC(=O)c1c(C)c2cnc(Nc3ccc(N4CCN(CC(=O)NCCCCCNc5cc(C)ccc5C(=O)Nc5ccc(N(C)C)nn5)CC4)cn3)nc2n(C2CCCC2)c1=O [CPD-373, 2-((5-(2-(4-(6-((6-Acetyl-8-cyclopentyl-5-methyl-7-oxo-7,8-dihydropyrido[2,3-d]pyrimidin-2-yl)amino)pyridin-3-yl)piperazin-1-yl)acetamido)pentyl)amino)-N-(6-(dimethylamino)pyridazin-3-yl)-4-methylbenzamide] | 50 to 80 | A (protein percentage degradation >=80%) | – | – | –
Cc1nc(NC(=O)c2ccccc2NC(=O)CCOCCNC(=O)CN2CCN(Cc3ccc(Nc4ncc(F)c(-c5cc(F)c6nc(C)n(C(C)C)c6c5)n4)nc3)CC2)sc1C [CPD-280, N-(4,5-Dimethylthiazol-2-yl)-2-(3-(2-(2-(4-((6-((5-fluoro-4-(4-fluoro-1-isopropyl-2-methyl-1H-benzo[d]imidazol-6-yl)pyrimidin-2-yl)amino)pyridin-3-yl)methyl)piperazin-1-yl)acetamido)ethoxy)propanamido)benzamide] | – | – | – | < 30 | D (protein percentage degradation < 30%)
CC(=O)c1c(C)c2cnc(Nc3ccc(N4CCN(CC(=O)NCCOCCOCCC(=O)Nc5ccccc5C(=O)Nc5ccc(C)cn5)CC4)cn3)nc2n(C2CCCC2)c1=O [CPD-061, 2-(3-(2-(2-(2-(4-(6-((6-Acetyl-8-cyclopentyl-5-methyl-7-oxo-7,8-dihydropyrido[2,3-d]pyrimidin-2-yl)amino)pyridin-3-yl)piperazin-1-yl)acetamido)ethoxy)ethoxy)propanamido)-N-(5-methylpyridin-2-yl)benzamide] | 50 to 80 | A (protein percentage degradation >=80%) | – | – | –
Cc1nc(NC(=O)c2ccccc2NC(=O)CCCCCCNC(=O)CN2CCN(Cc3ccc(Nc4ncc(F)c(-c5cc(F)c6nc(C)n(C(C)C)c6c5)n4)nc3)CC2)sc1C [CPD-277, N-(4,5-Dimethylthiazol-2-yl)-2-(7-(2-(4-((6-((5-fluoro-4-(4-fluoro-1-isopropyl-2-methyl-1H-benzo[d]imidazol-6-yl)pyrimidin-2-yl)amino)pyridin-3-yl)methyl)piperazin-1-yl)acetamido)heptanamido)benzamide] | – | – | – | < 30 | D (protein percentage degradation < 30%)
CC(=O)c1c(C)c2cnc(Nc3ccc(N4CCN(CC(=O)NCCOCCOCCC(=O)Nc5ccccc5C(=O)Nc5ccn(C)n5)CC4)cn3)nc2n(C2CCCC2)c1=O [CPD-068, 2-(3-(2-(2-(2-(4-(6-((6-Acetyl-8-cyclopentyl-5-methyl-7-oxo-7,8-dihydropyrido[2,3-d]pyrimidin-2-yl)amino)pyridin-3-yl)piperazin-1-yl)acetamido)ethoxy)ethoxy)propanamido)-N-(1-methyl-1H-pyrazol-3-yl)benzamide] | 50 to 80 | A (protein percentage degradation >=80%) | – | – | –
CC(=O)c1c(C)c2cnc(Nc3ccc(N4CCN(CC(=O)NCCOCCOCCOCCOCCC(=O)Nc5ccccc5C(=O)Nc5nc(C)c(C)s5)CC4)cn3)nc2n(C2CCCC2)c1=O [CPD-170, 2-(1-(4-(6-((6-Acetyl-8-cyclopentyl-5-methyl-7-oxo-7,8-dihydropyrido[2,3-d]pyrimidin-2-yl)amino)pyridin-3-yl)piperazin-1-yl)-2-oxo-6,9,12,15-tetraoxa-3-azaoctadecan-18-amido)-N-(4,5-dimethylthiazol-2-yl)benzamide] | 50 to 80 | A (protein percentage degradation >=80%) | – | – | –
CC(=O)c1c(C)c2cnc(Nc3ccc(N4CCN(C(=O)CCCCCC(=O)Nc5ccccc5C(=O)Nc5nc(C)c(C)s5)CC4)cn3)nc2n(C2CCCC2)c1=O [CPD-157, 2-(7-(4-(6-((6-Acetyl-8-cyclopentyl-5-methyl-7-oxo-7,8-dihydropyrido[2,3-d]pyrimidin-2-yl)amino)pyridin-3-yl)piperazin-1-yl)-7-oxoheptanamido)-N-(4,5-dimethylthiazol-2-yl)benzamide] | – | D (protein percentage degradation <30%) | < 30 | – | –
CC(=O)c1c(C)c2cnc(Nc3ccc(N4CCN(CC(=O)NCCOCCOCCC(=O)Nc5cccc(C)c5C(=O)Nc5nc(C)c(C)s5)CC4)cn3)nc2n(C2CCCC2)c1=O [CPD-139, 2-(3-(2-(2-(2-(4-(6-((6-Acetyl-8-cyclopentyl-5-methyl-7-oxo-7,8-dihydropyrido[2,3-d]pyrimidin-2-yl)amino)pyridin-3-yl)piperazin-1-yl)acetamido)ethoxy)ethoxy)propanamido)-N-(4,5-dimethylthiazol-2-yl)-6-methylbenzamide] | < 30 | D (protein percentage degradation <30%) | – | – | –
